This note sets out measurements from ChEMBL document CHEMBL1240356, “Efficacy profiles of daptomycin for treatment of invasive and noninvasive pulmonary infections with Streptococcus pneumoniae” (2010).

Structures are written as SMILES. The source made the active and inactive calls. The calls are words filed in the database; no cut-off is given here.

For test [1], the system named is Streptococcus pneumoniae. Description: Antibacterial activity against high dose 1.5 x 10^7 CFU Streptococcus pneumoniae serotype 2 infected in therapeutic C57BL/6 mouse model assessed as reduction of bacteremia at 20 mg/kg, ip measured after 4 days post infection. The format is functional, organism-based. More on the design: dose 20 mg/kg.
The test system of test [2] is Streptococcus pneumoniae. Put plainly: Antibacterial activity against 1.5 x 10^7 CFU Streptococcus pneumoniae serotype 2 infected in semitherapeutic C57BL/6 mouse model assessed as reduction of bacteremia at 20 mg/kg, ip measured after 1 day post infection. In kind it is functional, organism-based. The arrangement: dose 20 mg/kg.
Test [3] deals with Streptococcus pneumoniae. Put plainly: Antibacterial activity against high dose 1.5 x 10^7 CFU Streptococcus pneumoniae serotype 19 infected in semitherapeutic C57BL/6 mouse model assessed as reduction of bacteremia at 20 mg/kg, ip measured after 1 day post infection. In kind it is functional, organism-based. More on the design: dose 20 mg/kg.
Test [4] relates to Streptococcus pneumoniae. Put plainly: Antibacterial activity against high dose 1.5 x 10^7 CFU Streptococcus pneumoniae serotype 2 infected in therapeutic C57BL/6 mouse model assessed as bacterial count in lung at 20 mg/kg, ip measured after 3 days post infection. The format is functional. The note with it: route intraperitoneal.
In test [5] the test system is Streptococcus pneumoniae. Put plainly: Antibacterial activity against 1.5 x 10^7 CFU Streptococcus pneumoniae serotype 19 infected in therapeutic C57BL/6 mouse model assessed as survival rate at 20 mg/kg, ip qd beginning at time of infection measured after 6 days post infection. The format is functional. The note with it: route intraperitoneal.
The subject of test [6] is Streptococcus pneumoniae. Description: Antibacterial activity against high dose 1.5 x 10^7 CFU Streptococcus pneumoniae serotype 2 infected in therapeutic C57BL/6 mouse model assessed as bacterial count in blood at 20 mg/kg, ip measured after 3 days post infection. The format is functional. The note with it: route intraperitoneal.
The subject of test [7] is Streptococcus pneumoniae. Put plainly: Antibacterial activity against high dose 1.5 x 10^7 CFU Streptococcus pneumoniae serotype 19 infected in semitherapeutic C57BL/6 mouse model assessed as reduction of bacteremia at 20 mg/kg, ip measured after 2 days post infection. The format is functional, organism-based. More on the design: dose 20 mg/kg.
Test [8] concerns Streptococcus pneumoniae. Description: Antibacterial activity against high dose 1.5 x 10^7 CFU Streptococcus pneumoniae serotype 2 infected in semitherapeutic C57BL/6 mouse model assessed as bacterial count in lung at 20 mg/kg, ip measured after 1 day post infection. In kind it is functional. As to conditions: route intraperitoneal.
Test [9] deals with Streptococcus pneumoniae. Put plainly: Antibacterial activity against 1.5 x 10^7 CFU Streptococcus pneumoniae serotype 2 infected in semitherapeutic C57BL/6 mouse model assessed as reduction of bacteremia at 20 mg/kg, ip measured after 2 days post infection. In kind it is functional, organism-based. The arrangement: dose 20 mg/kg.
The test system of test [10] is Streptococcus pneumoniae. Put plainly: Antibacterial activity against high dose 1.5 x 10^7 CFU Streptococcus pneumoniae serotype 19 infected in semitherapeutic C57BL/6 mouse model assessed as bacterial count in lung at 20 mg/kg, ip measured after 1 day post infection. The format is functional. As to conditions: route intraperitoneal.

Regarding `CO/N=C(\C(=O)N[C@@H]1C(=O)N2C(C(=O)O)=C(CSc3nc(=O)c(O)nn3C)CS[C@H]12)c1csc(N)n1` [CEFTRIAXONE], the outcome in the test on Streptococcus pneumoniae [1], in the test with Streptococcus pneumoniae [2], with Streptococcus pneumoniae [3], in the test on Streptococcus pneumoniae [7] and in the test on Streptococcus pneumoniae [9] was Active. Besides, the log10cfu with Streptococcus pneumoniae [4] is on record as 4.6; with Streptococcus pneumoniae [6] it was 3.3; with Streptococcus pneumoniae [8], 0.8; with Streptococcus pneumoniae [10], 0.5. The Activity in the test with Streptococcus pneumoniae [5] is 100%.
